Patent US10925261B2, “Method for inducing feminization in Tilapia aurea via immersion with ethinyl estradiol” (GALLANT OCEAN INTERNATIONAL, INC., priority 2018, dated 2021)

System: Tilapia aurea fry
Assay: Induction of feminization in Tilapia aurea fry via immersion treatment with ethinyl estradiol
Type: in vivo
Settings: 3 minutes, 25° C., 3 dph fry
Method: Males and females of Tilapia aurea (about 12 months of age) provided by Prof. Chien-Hsien Kuo from the Department of Aquatic Biosciences at National Chiayi University (Taiwan) served as the parent fish in the following example. The male and female fish were separately raised in concrete ponds provided with water maintained at 25° C. and about 6 mg/L of dissolved oxygen under natural light, and were provided with feed ad libitum. Mating was carried out with a male-to-female ratio of 2:5. Fertilized eggs were flushed out from the oral cavity of the female fish to be collected, followed by incubation at 25° C. for 7 to 14 days. 3 dph fish fry were obtained.
Two immersion solutions respectively having ethinyl estradiol concentrations shown in Table 1 below were each prepared as follows. An appropriate amount of ethinyl estradiol was dissolved in 10 mL of ethanol, followed by mixing with 5 L of water in a water tank.
5 trials of feminization induction were conducted using a respective one of the two immersion solutions. Specifically, for each trial of feminization induction, the 3 dph Tilapia aurea fry (the amount thereof is shown in Table 1) were placed in the respective immersion solution at 25° C. for 3 minutes. […] After seven months of breeding, the gender of all the surviving fish was observed, and the feminization rate (i.e. the percentage of females) was calculated.

Compound: C#C[C@]1(O)CC[C@H]2[C@@H]3CCc4cc(O)ccc4[C@H]3CC[C@@]21C [ethinyl estradiol]
- Feminization rate (%) (percentage of females) (immersion 142.85 ppm, gender observed after seven months of breeding, trial 5): 87%
- Feminization rate of each trial (immersion 142.85 to 200 ppm, all 5 trials): ≥ 87%
